In patent US5618948A, “Process for preparing an enantiomer of a carbazole derivative” (SmithKline Beecham p.l.c., priority 1995, dated 1997) one finds EC50 data, which are given here for three compounds.

Each structure is given as a SMILES string.

This assay deals with T1, 5-HT1 -like Receptor (Oryctolagus cuniculus, UniProt P49144).
T1 construct: the basilar artery removed with the aid of a dissecting microscope; from tissue; host or cells: rabbit basilar artery ring segments, endothelium removed
T1 sequence (P49144 whole entry): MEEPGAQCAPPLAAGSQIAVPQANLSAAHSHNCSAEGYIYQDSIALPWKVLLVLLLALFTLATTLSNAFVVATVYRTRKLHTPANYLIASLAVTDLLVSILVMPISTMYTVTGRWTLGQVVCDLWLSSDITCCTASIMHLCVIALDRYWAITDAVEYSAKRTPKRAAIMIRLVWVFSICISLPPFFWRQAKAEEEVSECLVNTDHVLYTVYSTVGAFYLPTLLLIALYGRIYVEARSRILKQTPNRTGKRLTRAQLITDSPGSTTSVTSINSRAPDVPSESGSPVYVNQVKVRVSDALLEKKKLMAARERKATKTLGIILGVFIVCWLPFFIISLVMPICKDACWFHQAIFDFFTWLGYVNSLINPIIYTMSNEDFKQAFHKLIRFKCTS
Nature of the assay: 5-HT1-like Receptor Screen, rabbit isolated basilar artery (isometric tension, cumulative concentration-effect curves). The class given is cell-based. To be noted: endothelium removed, in presence of ascorbate, indomethacin, cocaine, ketanserin and prazosin. The procedure: 5-HT1 -like Receptor Screen
Experiments were performed in intracranial arteries from rabbit isolated basilar artery in a similar method to that described previously (Parsons and Whalley, 1989, Eur J Pharmacol 174, 189-196.)
In brief, rabbits were killed by overdose with anaesthetic (sodium pentobarbitone). The whole brain was quickly removed and immersed in ice cold modified Kreb's solution and the basilar artery removed with the aid of a dissecting microscope. The Krebs solution was of the following composition (mM) Na^+ (120); K^+ (5); Ca^2+ (2.25)Mg^2+(0.5); Cl^- (98.5); SO4^2- (1); ETDA (0.04), equilibrated with 95% O2 /5% CO2. The endothelium was removed by a gentle rubbing of the lumen with a fine metal wire. Arteries were then cut into ring segments (ca 4-5 mm wide) and set up for recording of isometric tension in 50 ml tissue baths in modified Krebs solution with the additional supplement of (mM); […] (20); fumarate (10); pyruvate (5); L-glutamate (5) and glucose (10). The arteries were then placed under a resting force of 3-4 mN maintained at 37° C. and the solution bubbled with 95% O2 /5% CO2.
After tests for initial reactivity with 90 mM KCl depolarising solution and for lack of acetylcholine-induced relaxation of 5-HT ([…]) precontraction, cumulative concentration-effect curves ([…]) to 5-HT were constructed in the presence of ascorbate […], cocaine […], indomethacin […], ketanserin […] and prazosin […].
Following a 45-60 min wash period, cumulative concentration-effect curves to the test compounds or 5-HT (as a time match control) were constructed in the presence of ascorbate, indomethacin, cocaine, ketanserin and prazosin.
R-(+)-6-carboxamido-3-N-methylamino-1,2,3,4-tetrahydrocarbazole; (compound A)
S-(-)-6-carboxamido-3-N-methylamino-1,2,3,4-tetrahydrocarbazole; (compound B)
R-(+)-6-carboxamido-3-N-ethylamino-1,2,3,4-tetrahydrocarbazole; (compound C)
For `CN[C@@H]1CCc2[nH]c3ccc(C(N)=O)cc3c2C1` [Compound A, R-(+)-6-carboxamido-3-N-methylamino-1,2,3,4-tetrahydrocarbazole], the EC50 stood at 30 nM.

Take `CCN[C@@H]1CCc2[nH]c3ccc(C(N)=O)cc3c2C1` [Compound C, R-(+)-6-carboxamido-3-N-ethylamino-1,2,3,4-tetrahydrocarbazole]: the EC50 worked out at 160 nM.

In the case of `CN[C@H]1CCc2[nH]c3ccc(C(N)=O)cc3c2C1` [Compound B, S-(-)-6-carboxamido-3-N-methylamino-1,2,3,4-tetrahydrocarbazole], the EC50 is > 2000 nM.

As a reminder, the EC50 is the midpoint of the concentration-response curve.
